Test results: article PMC6941172 (Journal of medicinal chemistry, 2018)

Assays:
GABAAR α6β3γ2 subtype = GABAAR α6β3γ2 subtype (Rattus norvegicus, UniProt P18508+P30191+P63079); settings: at 10 μM; cited from earlier work
[1] = Microsomal stability assay, mouse liver microsomes; type: in vitro ADME; settings: vs respective parent (8a, 8i, 8n or 8k)
Solubility assay = type: physicochemical; settings: vs parent ligand 8a
Muscarinic M4 = biological target: T1, Muscarinic M4 (Homo sapiens, UniProt P08173); type: binding
T1 sequence (P08173 1-479): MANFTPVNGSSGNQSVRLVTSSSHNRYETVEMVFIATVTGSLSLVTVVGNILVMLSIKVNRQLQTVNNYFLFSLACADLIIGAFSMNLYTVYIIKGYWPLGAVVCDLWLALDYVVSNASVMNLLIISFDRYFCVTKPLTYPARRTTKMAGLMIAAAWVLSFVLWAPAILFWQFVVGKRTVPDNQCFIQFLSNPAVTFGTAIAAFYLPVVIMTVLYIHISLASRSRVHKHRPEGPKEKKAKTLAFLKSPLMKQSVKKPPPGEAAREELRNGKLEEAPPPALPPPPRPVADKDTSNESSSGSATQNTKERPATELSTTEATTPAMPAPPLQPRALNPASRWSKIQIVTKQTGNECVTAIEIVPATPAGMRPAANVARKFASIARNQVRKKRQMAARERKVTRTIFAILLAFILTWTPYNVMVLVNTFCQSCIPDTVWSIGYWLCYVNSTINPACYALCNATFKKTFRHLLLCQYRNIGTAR

Chain of GABAAR α6β3γ2 subtype (P30191 20-453): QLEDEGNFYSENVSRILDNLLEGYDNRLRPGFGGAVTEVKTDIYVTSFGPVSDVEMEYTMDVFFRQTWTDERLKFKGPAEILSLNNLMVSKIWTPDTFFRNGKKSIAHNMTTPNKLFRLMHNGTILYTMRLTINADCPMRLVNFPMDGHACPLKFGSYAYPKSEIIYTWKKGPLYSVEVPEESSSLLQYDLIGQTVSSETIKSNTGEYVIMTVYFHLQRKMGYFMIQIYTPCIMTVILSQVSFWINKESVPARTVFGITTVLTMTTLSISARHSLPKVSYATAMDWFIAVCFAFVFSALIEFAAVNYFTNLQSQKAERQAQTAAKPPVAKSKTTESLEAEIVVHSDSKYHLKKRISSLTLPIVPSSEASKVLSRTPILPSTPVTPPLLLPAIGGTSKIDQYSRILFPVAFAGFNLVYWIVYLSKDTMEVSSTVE
Chain of GABAAR α6β3γ2 subtype (P63079 26-473): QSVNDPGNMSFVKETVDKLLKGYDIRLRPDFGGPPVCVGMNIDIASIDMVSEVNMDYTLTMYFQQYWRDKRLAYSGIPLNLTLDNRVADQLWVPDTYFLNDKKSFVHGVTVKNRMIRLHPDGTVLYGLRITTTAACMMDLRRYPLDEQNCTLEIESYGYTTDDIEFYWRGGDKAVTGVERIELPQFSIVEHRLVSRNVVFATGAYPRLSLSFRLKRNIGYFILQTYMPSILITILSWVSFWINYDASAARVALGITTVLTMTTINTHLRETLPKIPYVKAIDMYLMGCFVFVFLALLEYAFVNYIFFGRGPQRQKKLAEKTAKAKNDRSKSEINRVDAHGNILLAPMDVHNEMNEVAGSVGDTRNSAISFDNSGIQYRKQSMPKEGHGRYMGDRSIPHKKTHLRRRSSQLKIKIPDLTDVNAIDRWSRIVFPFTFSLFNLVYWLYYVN
Chain of GABAAR α6β3γ2 subtype (P18508 39-466): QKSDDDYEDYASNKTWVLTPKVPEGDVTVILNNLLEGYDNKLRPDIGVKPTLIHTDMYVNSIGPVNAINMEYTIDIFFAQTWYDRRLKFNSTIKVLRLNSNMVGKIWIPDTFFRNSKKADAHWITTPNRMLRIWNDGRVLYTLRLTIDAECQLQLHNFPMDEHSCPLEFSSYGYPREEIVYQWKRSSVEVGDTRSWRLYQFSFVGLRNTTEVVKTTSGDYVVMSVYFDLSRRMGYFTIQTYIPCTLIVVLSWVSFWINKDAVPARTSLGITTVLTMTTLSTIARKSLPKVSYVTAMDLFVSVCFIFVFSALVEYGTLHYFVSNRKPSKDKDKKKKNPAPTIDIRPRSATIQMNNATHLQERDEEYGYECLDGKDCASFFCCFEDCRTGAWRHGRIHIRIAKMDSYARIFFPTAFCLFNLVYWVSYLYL

Structure (SMILES) | α6β3γ2 efficacy relative to 8a and 8n (GABAAR α6β3γ2 subtype) | Increase in half-life (MLM) relative to parent ligand [1] | Increase in water solubility (Solubility assay) | Activity at Muscarinic M4 (Muscarinic M4)
COc1ccc(-n2nc3c4cc(Cl)ccc4[nH]cc-3c2=O)cc1 [Compound 8k, 8-Chloro-2-(4-methoxyphenyl)-2,5-dihydro-3H-pyrazolo[4,3-c]quinolin-3-one] | three times higher |  |  | 
COc1ccc2c3nn(-c4ccc(OC)nc4)c(=O)c-3c[nH]c2c1 [Compound 13a, 7-Methoxy-2-(6-methoxypyridin-3-yl)-2,5-dihydro-3H-pyrazolo[4,3-c]quinolin-3-one] |  | slightly decreased half-life | about 3 fold | showed activity
